The structures appear in SMILES notation.

Data set [1] is described as follows: Bioavailability of the solid form of Compound I. The note with it: no species, dose or data printed.
The nature of data set [2]: Thermodynamic stability of solid forms of Compound I. It is filed as physicochemical. The note with it: compared with other forms of Compound I; no method or data given.

Regarding `Cc1nn(C)cc1S(=O)(=O)NC(=O)c1ccc(-n2ccc(OCC(C)(C)C(F)(F)F)n2)nc1N1C[C@@H](C)CC1(C)C` [Crystalline Compound I Form A, N-(1,3-dimethylpyrazol-4-yl)sulfonyl-6-[3-(3,3,3-trifluoro-2,2-dimethyl-propoxy)pyrazol-1-yl]-2-[(4S)-2,2,4-trimethylpyrrolidin-1-yl]pyridine-3-carboxamide], in data set [1], the bioavailability entry is on record as “good bioavailability”. Further, the “thermodynamic stability of the solid form” value in data set [2] is “most thermodynamically stable form”.

Values taken from patent publication US20260034064A1, “COMPOSITIONS FOR THE TREATMENT OF CFTR-MEDIATED DISEASES” (Vertex Pharmaceuticals Incorporated, priority 2022, published 2026).
